For one test, the system named is retinal ganglion cell. Briefly: Retinal ganglion cell density on H-E staining, chronic intraocular pressure increase model. The format is in vivo, rat. Conditions: 8 weeks after the injury. On the procedure: (§1) 0.05 cc/50 g of Tiletimine and Zolazepam-mixed medicament (Zoletil) and Xylazine (Rompum) were mixed at a ratio of 1:1 and then administered to 20 rats by intramuscular injection, thereby anesthetizing the rats. A limbus periphery was divided into four portions, each of which was then subjected to 2 mm dissection at an interval of 90 degrees, and then, two radial conjunctival excisions were performed on upper dissection periphery. […] After surgical isolation of vein, the vein was lifted up by using 3 mm-width spatula to be spaced apart from the peripheral tissue, and then, was subjected to electric ablation while being careful for the peripheral tissue not to have any thermal damage or any mechanical damage due to contact. Intraocular pressure was consecutively measured three or more times by using Tonopen (Solan, Fla., USA), and only reliable intraocular pressure values within 5 percentile were recorded. […] Before the operation, and 3 days, and 1, 2, 4, and 8 weeks after the operation, intraocular pressure was measured, and the rats were sacrificed to extract eyes therefrom, which were then subjected to tissue examination and immunechemical staining with respect to Brn-3a and CD11b, and a reverse transcription polymerase chain reaction was used to measure CD11b value in retinal tissue. […]

Test [1] has as its system Brn-3a marked retinal ganglion cell. In words: Brn-3a immunochemical staining of retina, chronic intraocular pressure increase model. The test is classed as in vivo, rat. On the procedure:
as §1

The subject of the next test is angiogenin. In words: Angiogenin immunohistochemical staining of glaucoma rat model anterior chamber angle after instillation. Conditions: episcleral venous ablation glaucoma model, 1 hour after instillation, compared to before angiogenin instillation. The test is classed as in vivo. Here is the method:
Eyeballs donated for research purposes were pre-fixed in a 4% paraformaldehyde solution for 6 hours, and then, a tissue thereof was cut to be perpendicular to cornea, including cornea, limbus, and conjunctival, and the obtained tissue was fixed at room temperature for 6 hours. The fixed tissue was rapidly frozen and then a frozen tissue section was prepared and attached to slide glass. Thereafter, for immunohistochemical staining, the tissue section was washed with distilled water for 10 minutes and then, treated with 1% hydrogen peroxide solution for 20 minutes and then, washed three times with 0.02M phosphate buffer solution and treated with normal horse serum for 30 minutes. Then, primary antibody of angiogenin and Indoleamine 2,3-dioxygenase (IDO) were applied thereto for 48 hours, and then the result tissue were washed with PBS, and then, secondary antibody was applied thereto at room temperature for 1 hour. When immunohistochemical staining was completed, the tissue was sealed by poly-mount and identified by optical microscopy. […]

Test [2] relates to corneal chemical burn model. In words: Corneal chemical burn model: corneal opacity and corneal neoangiogenesis on anterior ocular segment images. The test is classed as in vivo, rat. Here is the method: Regarding 20 eyes of 20 rats, filter paper was cut to a round shape having a diameter of 4 mm and completely wet with NaOH, and then, placed on corneal and conjunctiva with upper corneal limbus therebetween for 6 seconds, and then, the eyes were washed. 10 eyes of the 10 rats were treated with angiogenin 10 μl four times a day at time intervals of 6 hours two days before test, and even after the NaOH injury, treated 4 times a day. The remaining 10 eyes were treated with physiological saline two days before the injury in the same manner as used with angiogenin. Angiogenin and physiological saline were all administered only up to 7 days after injuring.
(§2) Three days, and 1, 2, 4, and 8 weeks after injuring, corneal opacity and neoangiogenesis level were assessed in consideration of images of anterior ocular segment, and on the third day and the seventh day, the respective conjunctiva damaged parts were collected and then subjected to a reverse transcription polymerase chain reaction to assay expression of IL-1a, TGF-β, SDF-1, and caspase-3.
On the corneal neoangiogenesis image, the region where blood vessel was grown was divided in the wedge shape at intervals of 1 hour while the corneal peak was used as a reference, and an area thereof was calculated, and the area was calculated according to this equation: A=C/12×3.1416 [r^2−(r−l)^2]. (A: new vessel area, C: time occupied when divided by 12 hours, r: corneal […], and l: vascular grown length)

The subject of a further test is SDF-1. Briefly: Reverse transcription polymerase chain reaction on injured tissue of corneal chemical burn model, SDF-1. The test is classed as in vivo, rat. Conditions: third day and seventh day after keratoconjunctival chemical injury. Here is the method: as §2
(§3) Tissues obtained from chronic intraocular pressure increase model and corneal chemical burn model were frozen, and then cut into small parts by using a fine knife. The tissue parts were treated with 1 ml of TRI reagent (Molecular Research Center, Inc.) and then, tissue and cell were lysed by homogenizer. The respective implication cDNA […] 0.2 mM dNTP, 10×buffer, 10 pmols primer, and 0.2 U Taq polymerase were mixed to obtain a volume of 20 μl, and then, PCR thermal cycler (a machine for PCR) was used for reaction for 5 minutes at 95° C., 40 second at 94° C., 40 seconds at 48 to 64° C., 40 seconds (35 cycles) at 72° C., and 10 minutes at 72° C. The amplified polymerase chain reaction product was identified by 1% agarose gel electrophoresis. β actin was used as a positive control for the polymerase chain reaction, and relative expression morphs of a target gene with respect to β actin expression were compared. […]

The subject of another test is IL-1a. Briefly: Reverse transcription polymerase chain reaction on injured tissue of corneal chemical burn model, IL-1a. Conditions: third day and seventh day after keratoconjunctival chemical injury. The test is classed as in vivo, rat. Here is the method:
as §2, §3

The next test relates to CD11b marked macrophage. Briefly: CD11b immunochemical staining of retina, chronic intraocular pressure increase model. The test is classed as in vivo, rat. On the procedure:
as §1

Where [3] appears, read: from 2 weeks after the injury to 8 weeks.

For the substance “angiogenin: recombinant human angiogenin (R&D systems); 14.4 kDa single chain protein of 123 amino acids, a ribonuclease inducing angiogenesis”, in the test with retinal ganglion cell, the “density of retinal ganglion cell” value is recorded as “does not change”. The “density of Brn-3a marked retinal ganglion cell” value in test [1] is recorded as “well maintained”. Also, the “angiogenin stain in anterior chamber angle / at trabecular meshwork” value with angiogenin is “intensified”. In test [2] (setting [3]), the “corneal opacity compared to the control” value is on record as “significantly low” and the “corneal opacity grade (most of the group)” value was “grade 1 or grade 2”. In test [2] (on the second week after injury), the “corneal new vessel area” value was “did not change”. Besides, the “corneal opacity compared to the control” value in test [2] (up to the seventh day after injury) was “no significant difference”. The “SDF-1 expression compared to the control” value in the test on SDF-1 is reported as “less expressed”. In addition, the “IL-1a expression compared to the control” value in the test on IL-1a is given as “less expressed”. Besides, the “distribution of CD11b marked macrophage in retinal ganglion layer” value in the test with CD11b marked macrophage was “highly frequently distributed”.

Source of the values: patent US9855320B2, “Angiogenin for treatment of glaucoma” (CHUNG-ANG UNIVERSITY INDUSTRY-ACADEMIC COOPERATION …, priority 2011, dated 2018).
